Measured values published in patent US20210369721A1, “SUBLINGUAL FORMULATION FOR HYPOTENSION AND SYNCOPE” (priority 2020, published 2021).
“And” between values parts separate entries of the source, which are not always exact repeats. Equal values may be shown once. One block for each compound: values may come before it.

Tests used:
A2 adenosine receptor = conditions: cited from earlier work
blood donors = conditions: 125 or 250 mg; 95% CI 0.21-0.85; p=0.02; cited from earlier work
normal, healthy adults = assay: Phase I CPC sublingual gel: blood pressure and heart rate; format: in vivo, human; conditions: 15-120 minutes
Protocol: Study Methods: The design was an open label, phase I, dose escalation, pharmacokinetic study of a novel gel formulation of capsaicin, phenylephrine, and caffeine administered sublingually to normal, healthy adults.
Dosing and Administration: The product was expressed as fast as feasible from the oral syringe sublingually. The subject was asked to have the gel reside under the tongue for 1 minute before it was swallowed and the mouth was rinsed with water. Multiple rinses were allowed.
Of the three active components of the sublingual dosage, the dose of phenylephrine was the focus of dose escalation.
Study Drug Administration: The subject were asked to sit in a chair that allowed access to their mouth and subsequent blood sampling and continuous BP and HR monitoring. After 15-minute rest, vital signs were taken pre-dose, and SBP had to be ≤130 mmHg in order for dose to be given. If SBP>130 mmHg, the blood pressure was checked again in 15 minutes. If the repeat measurement had SBP≤130 mmHg, the first dose of CPC was given.
The study nurse delivered the appropriate dose to the subject using an oral syringe sublingually. The subject allowed the gel to reside under the tongue for 1 minute before the gel was swallowed and the mouth was rinsed with water that was swallowed. Multiple rinses were allowed as was water ad lib. […]

[1] = single dose of 200-250 mg, cited from earlier work
[2] = Caffeine plasma level after sublingual caffeine+capsaicin in ethanol; format: in vivo, human; conditions: 5 cases; sublingual caffeine 200 mg + capsaicin in ethanol
VR1receptor = conditions: micro molar range; cited from earlier work
[3] = system: healthy subjects and 1 patient with a history of VVS; assay: Study 2: Capsaicin alone, tilt table testing; format: in vivo, human
Protocol: In a second study, we tested the effect of Capsaicin alone (50 μL Capsaicin 0.5%) on HR and BP in 3 healthy subjects (1 woman and 2 men mean age 35±18 years) and in 1 patient with a history of VVS during tilt table testing (Table 1).

clinical = conditions: human, in vivo
Protocol: Pharmacokinetic Sampling: Blood samples were collected via the venous catheter with appropriate pre- and post-sample flushing. If the indwelling venous catheter patency was lost, the phlebotomist or nurse attempted to replace it, if possible. Separate needle sticks could be done for the blood collection.
Samples were collected in 6 mL heparinized tubes at the following time points: Pre-dose, 30 seconds, 1, 2, 5, 15, 30, 45, 60, 90, 120 min, and 3, 4, 6, 8, 12, 24* hours
The lithium heparin tube and 1 K2EDTA tube (capsaicin sample) were immediately placed on ice or refrigerated. […] All blood samples were centrifuged as soon as possible after clotting in a refrigerated centrifuge. The plasma from each tube was equally distributed between 2 polypropylene tubes, labeled and promptly stored at −80° C. until thawed for analysis.

[4] = system: impending syncope (VVS) patients; conditions: cited from earlier work
[5] = cited from earlier work
impending VVS = conditions: cited from earlier work
[6] = healthy subjects, individual subjects

Structure (SMILES): Cn1c(=O)c2c(ncn2C)n(C)c1=O [Caffeine]
Affinity (A2 adenosine receptor): 9 µM
RR of occurrence of VVRs versus placebo (blood donors): 0.42
Speculated contribution of Caffeine to SBP elevation (normal, healthy adults): 1-2 mmHg
Increase in SBP ([1]; within 30 minutes): 3-14 mmHg
Time of maximal increase in SBP [1]: 60 to 120 min
Start of increase in caffeine blood concentration [2]: 30 s

Structure (SMILES): COc1cc(CNC(=O)CCCC/C=C/C(C)C)ccc1O [Capsaicin, 8-methyl-N-vanillyl-trans 6-nonenamide]
Symptoms after drug ([3]; 1 patient with VVS): no
HR after Drug ([3]; 1 patient with VVS, HR at time 0 56): 80 bpm
HR after Drug, Mean ([3]; Mean of 3 healthy subjects, HR at time 0 mean 78): 96 bpm
Effect on SBP ([3]; healthy subjects, conclusion): able to increase SBP
Symptoms after drug [3, 6]: no
Effect on loss of consciousness ([3]; one VVS patient, conclusion): prevent loss of consciousness
Outcome of tilt test ([3]; patient with VVS): experienced only presyncope

PE blood concentration in the current study (clinical): 1 to 2 ng/mL
concentration at 15 min (clinical): ~1 ng/mL
Structure (SMILES): CNC[C@H](O)c1cccc(O)c1 [PE, phenylephrine]
Effect on vagally-induced bradycardia ([4]; in vivo): unable to counteract the vagally-induced bradycardia
Effect on blood pressure ([4]; intra-atrial bolus 1 mg/1 ml at impending syncope): immediate marked increase in blood pressure
Effect on VVS ([4]; intra-atrial bolus 1 mg/1 ml): interrupted VVS in most patients
Time to effect ([4]; mostly): ≤ 20 s
Speculated contribution of PE to SBP elevation (normal, healthy adults): 1-2 mmHg
Mean increase in SBP ([5]; PE blood concentration of 20 nM, 3 mcg/L or 3 ng/ml): 3 mmHg
Increase in systolic BP, mean ([5]; PE concentration of 9 mcg/L): 11 mmHg
Increase in systolic BP, range ([5]; PE concentration of 9 mcg/L): 6-20 mmHg

Structure (SMILES): CCNCC(O)c1cccc(O)c1 (centres unmarked) [etilefrine]
Cases in which impending VVS was aborted (impending VVS; intravenous injection, 20% with placebo): 87%
Time to effect (impending VVS; mostly): ≤ 20 s
